Test results from patent publication US10167262B2, “Herbicidal substituted 3-arylpyrazoles” (FMC CORPORATION, priority 2014, dated 2019).

Experiments:
Experiment in all cases: Test E pre-/postemergence greenhouse test, plant response rating 0-100
Assay type in all cases: in vivo
corn (Zea mays) = details: Postemergence, scale 0 to 100
Description: (§1) Seeds of plant species selected from corn (Zea mays), soybean (Glycine max), velvetleaf (Abutilon theophrasti), lambsquarters (Chenopodium album), wild poinsettia (Euphorbia heterophylla), palmer pigweed (Amaranthus palmeri), waterhemp (common waterhemp, Amaranthus rudis), surinam grass (Brachiaria decumbens), large (Lg) crabgrass (Digitaria sanguinalis), Brazilian crabgrass (Digitaria horizontalis), fall panicum (Panicum dichotomiflorum), giant foxtail (Setaria faberii), green foxtail (Setaria viridis), goosegrass (Eleusine indica), johnsongrass (Sorghum halepense), ragweed (common ragweed, Ambrosia elatior), barnyardgrass (Echinochloa crus-galli), sandbur (southern sandbur, Cenchrus echinatus), arrowleaf sida (Sida rhombifolia), Italian ryegrass (Lolium multiflorum), dayflower (Virginia (VA) dayflower, Commelina virginica), field bindweed (Convolvulus arvensis), morningglory (Ipomoea coccinea), nightshade (eastern black nightshade, Solanum ptycanthum), kochia (Kochia scoparia), yellow nutsedge (Cyperus esculentus), smartweed (ladysthumb smartweed, Polygonum persicaria), cocklebur (common cocklebur, Xanthium strumarium), and hairy beggarticks (Bidens pilosa), were planted into a silt loam soil and treated preemergence with test chemicals formulated in a non-phytotoxic solvent mixture which included a surfactant.
(§2) At the same time, plants from these crop and weed species and also waterhemp_RES1, (ALS & Triazine resistant common waterhemp, Amaranthus rudis), and waterhemp_RES2, (ALS & HPPD resistant common waterhemp, Amaranthus rudis) were planted in pots containing Redi-Earth® planting medium (Scotts Company, 14111 Scottslawn Road, Marysville, Ohio 43041) comprising spaghnum peat moss, vermiculite, wetting agent and starter nutrients were treated with postemergence applications of test chemicals formulated in the same manner. Plants ranged in height from 2 to 18 cm for postemergence treatments (1- to 4-leaf stage).
(§3) Treated plants and controls were maintained in a greenhouse for 14 to 21 days, after which time all species were compared to controls and visually evaluated. Plant response ratings, summarized in Table E, are based on a scale of 0 to 100 where 0 is no effect and 100 is complete control. A dash (-) response means no test result.

[1] = test system: Brazilian crabgrass (Digitaria horizontalis); details: Postemergence, scale 0 to 100
Description: as §1, §2, §3

[2] = test system: sandbur (southern sandbur, Cenchrus echinatus); details: Postemergence, scale 0 to 100
Description: as §1, §2, §3

[3] = test system: hairy beggarticks (Bidens pilosa); details: Postemergence, scale 0 to 100
Description: as §1, §2, §3

[4] = test system: waterhemp (common waterhemp, Amaranthus rudis); details: Postemergence, scale 0 to 100
Description: as §1, §2, §3

soybean (Glycine max) = details: Postemergence, scale 0 to 100
Description: as §1, §2, §3

[5] = test system: palmer pigweed (Amaranthus palmeri); details: Postemergence, scale 0 to 100
Description: as §1, §2, §3

[6] = test system: arrowleaf sida (Sida rhombifolia); details: Postemergence
Description: as §1, §2, §3

[7] = test system: dayflower (Virginia (VA) dayflower, Commelina virginica); details: Postemergence, scale 0 to 100
Description: as §1, §2, §3

[8] = test system: wild poinsettia (Euphorbia heterophylla); details: Postemergence, scale 0 to 100
Description: as §1, §2, §3

[9] = test system: field bindweed (Convolvulus arvensis); details: Postemergence, scale 0 to 100
Description: as §1, §2, §3

[10] = test system: fall panicum (Panicum dichotomiflorum); details: Postemergence, scale 0 to 100
Description: as §1, §2, §3

[11] = 500 g ai/ha, scale 0 to 100 (0 no effect, 100 complete control)

Fc1ccc(NN=C(c2ccccc2)c2c[nH]nc2-c2cc(Cl)cc(Cl)c2)cc1 [Compound 35]
Plant response rating, Corn (corn (Zea mays); 31 g ai/ha): 0 | Plant response rating, Corn (corn (Zea mays); 62 g ai/ha): 0 | Plant response rating, Corn (corn (Zea mays); 125 g ai/ha): 0 | Plant response rating, Corn (corn (Zea mays); 250 g ai/ha): 0 | Plant response rating, Corn (corn (Zea mays); 500 g ai/ha): 0 | Plant response rating, Crabgrass, Brazil ([1]; 31 g ai/ha): 0 | Plant response rating, Crabgrass, Brazil ([1]; 62 g ai/ha): 0 | Plant response rating, Crabgrass, Brazil ([1]; 125 g ai/ha): 0 | Plant response rating, Crabgrass, Brazil ([1]; 250 g ai/ha): 0 | Plant response rating, Crabgrass, Brazil ([1]; 500 g ai/ha): 10 | Plant response rating, Sandbur ([2]; 31 g ai/ha): 0 | Plant response rating, Sandbur ([2]; 62 g ai/ha): 0 | Plant response rating, Sandbur ([2]; 125 g ai/ha): 0 | Plant response rating, Sandbur ([2]; 250 g ai/ha): 0 | Plant response rating, Sandbur ([2]; 500 g ai/ha): 0 | Plant response rating, Beggarticks ([3]; 31 g ai/ha): 85 | Plant response rating, Beggarticks ([3]; 62 g ai/ha): 98 | Plant response rating, Beggarticks ([3]; 125 g ai/ha): 98 | Plant response rating, Beggarticks ([3]; 250 g ai/ha): 98 | Plant response rating, Beggarticks ([3]; 500 g ai/ha): 100 | Plant response rating, Waterhemp ([4]; 62 g ai/ha): 85 | Plant response rating, Waterhemp ([4]; 125 g ai/ha): 95 | Plant response rating, Waterhemp ([4]; 250 g ai/ha): 98 | Plant response rating, Waterhemp ([4]; 500 g ai/ha): 100 | Plant response rating, Soybean (soybean (Glycine max); 31 g ai/ha): 0 | Plant response rating, Soybean (soybean (Glycine max); 62 g ai/ha): 0 | Plant response rating, Soybean (soybean (Glycine max); 125 g ai/ha): 0 | Plant response rating, Soybean (soybean (Glycine max); 250 g ai/ha): 0 | Plant response rating, Soybean (soybean (Glycine max); 500 g ai/ha): 0 | Plant response rating, Pigweed, Palmer ([5]; 31 g ai/ha): 75 | Plant response rating, Pigweed, Palmer ([5]; 62 g ai/ha): 80 | Plant response rating, Pigweed, Palmer ([5]; 125 g ai/ha): 98 | Plant response rating, Pigweed, Palmer ([5]; 250 g ai/ha): 100 | Plant response rating, Pigweed, Palmer ([5]; 500 g ai/ha): 100 | Plant response rating, Arrowleaf Sida ([6]; 31 g ai/ha, scale 0 to 100): 50 | Plant response rating, Arrowleaf Sida ([6]; 62 g ai/ha, scale 0 to 100): 60 | Plant response rating, Arrowleaf Sida ([6]; 125 g ai/ha, scale 0 to 100): 70 | Plant response rating, Arrowleaf Sida ([6]; 250 g ai/ha, scale 0 to 100): 80 | Plant response rating, Arrowleaf Sida [6, 11]: 90 | Plant response rating, Dayflower, VA ([7]; 31 g ai/ha): 0 | Plant response rating, Dayflower, VA ([7]; 62 g ai/ha): 0 | Plant response rating, Dayflower, VA ([7]; 125 g ai/ha): 0 | Plant response rating, Dayflower, VA ([7]; 250 g ai/ha): 0 | Plant response rating, Dayflower, VA ([7]; 500 g ai/ha): 0 | Plant response rating, Poinsettia, Wild ([8]; 31 g ai/ha): 0 | Plant response rating, Poinsettia, Wild ([8]; 62 g ai/ha): 0 | Plant response rating, Poinsettia, Wild ([8]; 125 g ai/ha): 0 | Plant response rating, Poinsettia, Wild ([8]; 250 g ai/ha): 0 | Plant response rating, Poinsettia, Wild ([8]; 500 g ai/ha): 0 | Plant response rating, Field Bindweed ([9]; 31 g ai/ha): 0 | Plant response rating, Field Bindweed ([9]; 62 g ai/ha): 0 | Plant response rating, Field Bindweed ([9]; 125 g ai/ha): 0 | Plant response rating, Field Bindweed ([9]; 250 g ai/ha): 0 | Plant response rating, Field Bindweed ([9]; 500 g ai/ha): 15

ON=C(c1ccccc1)c1c[nH]nc1-c1cc(Cl)cc(Cl)c1 [Compound 50]
Plant response rating, Panicum, Fall ([10]; 31 g ai/ha): 0 | Plant response rating, Panicum, Fall ([10]; 62 g ai/ha): 0 | Plant response rating, Panicum, Fall ([10]; 125 g ai/ha): 0 | Plant response rating, Panicum, Fall ([10]; 250 g ai/ha): 0 | Plant response rating, Panicum, Fall ([10]; 500 g ai/ha): 0 | Plant response rating, Corn (corn (Zea mays); 31 g ai/ha): 0 | Plant response rating, Corn (corn (Zea mays); 62 g ai/ha): 0 | Plant response rating, Corn (corn (Zea mays); 125 g ai/ha): 0 | Plant response rating, Corn (corn (Zea mays); 250 g ai/ha): 0 | Plant response rating, Corn (corn (Zea mays); 500 g ai/ha): 0 | Plant response rating, Crabgrass, Brazil ([1]; 31 g ai/ha): 0 | Plant response rating, Crabgrass, Brazil ([1]; 62 g ai/ha): 0 | Plant response rating, Crabgrass, Brazil ([1]; 125 g ai/ha): 0 | Plant response rating, Crabgrass, Brazil ([1]; 250 g ai/ha): 0 | Plant response rating, Crabgrass, Brazil ([1]; 500 g ai/ha): 0 | Plant response rating, Sandbur ([2]; 31 g ai/ha): 0 | Plant response rating, Sandbur ([2]; 62 g ai/ha): 0 | Plant response rating, Sandbur ([2]; 125 g ai/ha): 0 | Plant response rating, Sandbur ([2]; 250 g ai/ha): 0 | Plant response rating, Sandbur ([2]; 500 g ai/ha): 0 | Plant response rating, Waterhemp ([4]; 31 g ai/ha): 80 | Plant response rating, Waterhemp ([4]; 125 g ai/ha): 90 | Plant response rating, Waterhemp ([4]; 250 g ai/ha): 100 | Plant response rating, Waterhemp ([4]; 500 g ai/ha): 100 | Plant response rating, Soybean (soybean (Glycine max); 31 g ai/ha): 0 | Plant response rating, Soybean (soybean (Glycine max); 62 g ai/ha): 0 | Plant response rating, Soybean (soybean (Glycine max); 125 g ai/ha): 0 | Plant response rating, Soybean (soybean (Glycine max); 250 g ai/ha): 0 | Plant response rating, Soybean (soybean (Glycine max); 500 g ai/ha): 0 | Plant response rating, Pigweed, Palmer ([5]; 31 g ai/ha): 65 | Plant response rating, Pigweed, Palmer ([5]; 62 g ai/ha): 75 | Plant response rating, Pigweed, Palmer ([5]; 125 g ai/ha): 80 | Plant response rating, Pigweed, Palmer ([5]; 250 g ai/ha): 98 | Plant response rating, Pigweed, Palmer ([5]; 500 g ai/ha): 98 | Plant response rating, Arrowleaf Sida ([6]; 31 g ai/ha, scale 0 to 100): 50 | Plant response rating, Arrowleaf Sida ([6]; 62 g ai/ha, scale 0 to 100): 50 | Plant response rating, Arrowleaf Sida ([6]; 125 g ai/ha, scale 0 to 100): 60 | Plant response rating, Arrowleaf Sida ([6]; 250 g ai/ha, scale 0 to 100): 70 | Plant response rating, Arrowleaf Sida [6, 11]: 80 | Plant response rating, Dayflower, VA ([7]; 31 g ai/ha): 0 | Plant response rating, Dayflower, VA ([7]; 62 g ai/ha): 0 | Plant response rating, Dayflower, VA ([7]; 125 g ai/ha): 0 | Plant response rating, Dayflower, VA ([7]; 250 g ai/ha): 0 | Plant response rating, Dayflower, VA ([7]; 500 g ai/ha): 0 | Plant response rating, Poinsettia, Wild ([8]; 31 g ai/ha): 0 | Plant response rating, Poinsettia, Wild ([8]; 62 g ai/ha): 0 | Plant response rating, Poinsettia, Wild ([8]; 125 g ai/ha): 0 | Plant response rating, Poinsettia, Wild ([8]; 250 g ai/ha): 20 | Plant response rating, Poinsettia, Wild ([8]; 500 g ai/ha): 30 | Plant response rating, Field Bindweed ([9]; 31 g ai/ha): 0 | Plant response rating, Field Bindweed ([9]; 62 g ai/ha): 0 | Plant response rating, Field Bindweed ([9]; 125 g ai/ha): 0 | Plant response rating, Field Bindweed ([9]; 250 g ai/ha): 0 | Plant response rating, Field Bindweed ([9]; 500 g ai/ha): 5
